Assay results taken from the supplement of paper PMC4932681.

Legend:
[1] = system: BT-474 Tam1; test: relative IC50 (midpoint of fitted logistic curve, plateau may be below 50% inhibition; CellTiter-Glo viability); higher = less potent; conditions: 4-OH-tamoxifen in medium 1 µM; 72 h
Method: (§1)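 FIMM FO2B library drugs were plated at 5 concentrations spanning a 10,000-fold range in 384-well plates. Cells were incubated for 72 h at 37 °C and viability was read by CellTiter-Glo, normalised to DMSO (0% inhibition) and 100 µM benzethonium chloride (100% inhibition). IC50 values come from logistic dose-response fits (Breeze pipeline). Tamoxifen-resistant lines and the 'in 1µM tamoxifen' parental arms were tested in medium with 1 µM 4-OH-tamoxifen.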

[2] = system: ZR-75-1; test: as above; conditions: 4-OH-tamoxifen in medium 0 µM; 72 h
Method: as §1

[3] = system: BT-474; test: as above; conditions: 72 h
Method: as §1

[4] = system: ZR-75-1 Tam1; test: drug sensitivity score (DSS) (DSS (dimensionless)); higher = more sensitive; extreme values may be limits of the assay; conditions: 4-OH-tamoxifen in medium 1 µM; 72 h
Method: (§2)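 FIMM FO2B library drugs were tested at 5 concentrations (10,000-fold range) for 72 h, with CellTiter-Glo viability normalised to DMSO and benzethonium chloride controls. The Drug Sensitivity Score (DSS) is computed from the fitted logistic dose-response curve (area-based; 0 = inactive). Resistant lines and the 'in 1µM tamoxifen' arms were tested in 1 µM 4-OH-tamoxifen.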

[5] = system: MCF-7; test: as above; conditions: 72 h
Method: as §2

[6] = system: T-47D; test: as above; conditions: 72 h
Method: as §2

[7] = system: T-47D Tam2; test: as above; conditions: 4-OH-tamoxifen in medium 1 µM; 72 h
Method: as §2

[8] = system: ZR-75-1 Tam2; test: as above; conditions: 4-OH-tamoxifen in medium 1 µM; 72 h
Method: as §2

[9] = system: MCF-7 Tam1; test: as above; conditions: 4-OH-tamoxifen in medium 1 µM; 72 h
Method: as §2

[10] = system: BT-474 Tam1; test: as above; conditions: 4-OH-tamoxifen in medium 1 µM; 72 h
Method: as §2

[11] = system: BT-474 Tam2; test: as above; conditions: 4-OH-tamoxifen in medium 1 µM; 72 h
Method: as §2

[12] = system: T-47D Tam1; test: as above; conditions: 4-OH-tamoxifen in medium 1 µM; 72 h
Method: as §2

[13] = system: ZR-75-1; test: as above; conditions: 72 h
Method: as §2

[14] = system: BT-474; test: as above; conditions: 72 h
Method: as §2

[15] = system: ZR-75-1 Tam1; test: viability inhibition at highest dose (% inhibition); higher = more growth inhibition; conditions: 4-OH-tamoxifen in medium 1 µM; 72 h
Procedure, shortened: (§3)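 Drug sensitivity score, relative IC50 as the curve midpoint, and top-dose inhibition were derived from logistic dose–response fits in the Breeze pipeline. These fits used CellTiter-Glo viability, read on a PHERAstar and normalised to vehicle-only and positive controls. Breast cancer cell lines and resistant derivatives had been incubated for 72 h at 37 °C in 384-well plates holding library drugs at five concentrations spanning a 10 000-fold range. Resistant lines were grown in medium with 1 μM of the selecting drug.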

[16] = system: MCF-7; test: as above; conditions: 72 h
Procedure, shortened: as §3

[17] = system: T-47D; test: as above; conditions: 72 h
Procedure, shortened: as §3

[18] = system: T-47D Tam2; test: as above; conditions: 4-OH-tamoxifen in medium 1 µM; 72 h
Procedure, shortened: as §3

[19] = system: ZR-75-1 Tam2; test: as above; conditions: 4-OH-tamoxifen in medium 1 µM; 72 h
Procedure, shortened: as §3

[20] = system: MCF-7 Tam1; test: as above; conditions: 4-OH-tamoxifen in medium 1 µM; 72 h
Procedure, shortened: as §3

[21] = system: BT-474 Tam1; test: as above; conditions: 4-OH-tamoxifen in medium 1 µM; 72 h
Procedure, shortened: as §3

[22] = system: BT-474 Tam2; test: as above; conditions: 4-OH-tamoxifen in medium 1 µM; 72 h
Procedure, shortened: as §3

[23] = system: T-47D Tam1; test: as above; conditions: 4-OH-tamoxifen in medium 1 µM; 72 h
Procedure, shortened: as §3

[24] = system: ZR-75-1; test: as above; conditions: 72 h
Procedure, shortened: as §3

[25] = system: BT-474; test: as above; conditions: 72 h
Procedure, shortened: as §3

SMILES	relative IC50 [1]	relative IC50 [2]	relative IC50 ([3]; 4-OH-tamoxifen in medium 0 µM)	relative IC50 ([3]; 4-OH-tamoxifen in medium 1 µM)	drug sensitivity score [4]	drug sensitivity score ([5]; 4-OH-tamoxifen in medium 0 µM)	drug sensitivity score ([5]; 4-OH-tamoxifen in medium 1 µM)	drug sensitivity score ([6]; 4-OH-tamoxifen in medium 0 µM)	drug sensitivity score ([6]; 4-OH-tamoxifen in medium 1 µM)	drug sensitivity score [7]	drug sensitivity score [8]	drug sensitivity score [9]	drug sensitivity score [10]	drug sensitivity score [11]	drug sensitivity score [12]	drug sensitivity score ([13]; 4-OH-tamoxifen in medium 0 µM)	drug sensitivity score ([13]; 4-OH-tamoxifen in medium 1 µM)	drug sensitivity score ([14]; 4-OH-tamoxifen in medium 0 µM)	drug sensitivity score ([14]; 4-OH-tamoxifen in medium 1 µM)	viability inhibition at highest dose [15]	viability inhibition at highest dose ([16]; 4-OH-tamoxifen in medium 0 µM)	viability inhibition at highest dose ([16]; 4-OH-tamoxifen in medium 1 µM)	viability inhibition at highest dose ([17]; 4-OH-tamoxifen in medium 0 µM)	viability inhibition at highest dose ([17]; 4-OH-tamoxifen in medium 1 µM)	viability inhibition at highest dose [18]	viability inhibition at highest dose [19]	viability inhibition at highest dose [20]	viability inhibition at highest dose [21]	viability inhibition at highest dose [22]	viability inhibition at highest dose [23]	viability inhibition at highest dose ([24]; 4-OH-tamoxifen in medium 0 µM)	viability inhibition at highest dose ([24]; 4-OH-tamoxifen in medium 1 µM)	viability inhibition at highest dose ([25]; 4-OH-tamoxifen in medium 0 µM)	viability inhibition at highest dose ([25]; 4-OH-tamoxifen in medium 1 µM)
COc1cc2c(Oc3ccc(NC(=O)C4(C(=O)Nc5ccc(F)cc5)CC4)cc3F)ccnc2cc1OCCCN1CCOCC1 [Foretinib (Foretinib)]	314 nM	> 1000 nM	> 1000 nM	404 nM	0	0.867	0.0297	0.41	0.227	1.36	0.585	1.72	1.42	0.0003	0.595	0	0	0	1.73	–	–	–	–	–	–	–	–	–	–	–	–	–	–	–
CCS(=O)(=O)c1cccc(-c2cc(C(=O)NC3CCN(C)CC3)c(C)c3[nH]c4ncc(C)cc4c23)c1 [TAK-901] (drug 1000 nM)	–	–	–	–	–	–	–	–	–	–	–	–	–	–	–	–	–	–	–	-9.15	16.5	24.8	40.7	18.2	34.6	-10.7	9.8	30.7	25.1	66.5	-12.6	-15.9	-6.02	30.4
CC[C@@H]1C(=O)OC[C@@H]1Cc1cncn1C [Pilocarpine] (drug 40000 nM)	–	–	–	–	–	–	–	–	–	–	–	–	–	–	–	–	–	–	–	8.48	-3.51	9.03	-7.15	-0.389	9.72	-0.127	-6.84	4.36	6.51	-0.157	-3.18	-6.19	-0.744	-6.73
CCNC(=O)c1noc(-c2cc(C(C)C)c(O)cc2O)c1-c1ccc(CN2CCOCC2)cc1 [NVP-AUY922] (drug 1000 nM)	–	–	–	–	–	–	–	–	–	–	–	–	–	–	–	–	–	–	–	28.5	61.6	46.1	68.8	55.5	55	44.4	24.1	75.2	65.7	49.8	34.2	42.6	48.6	78
O=C(O)CC[C@H]1CC[C@@](c2cc(F)ccc2F)(S(=O)(=O)c2ccc(Cl)cc2)CC1 [MK-0752] (drug 1000 nM)	–	–	–	–	–	–	–	–	–	–	–	–	–	–	–	–	–	–	–	-3.02	-24.6	1.59	-16.2	-1.71	4.08	-2.73	-0.531	-7.32	2.64	2.67	-11.9	-13.3	-9.96	-12.2
